What all share (assay): Calcium mobilization assay (FLIPR), substitution mutant
Type in all cases: cell-based
(In general: Calcium flux is commonly read through the fluorescence of an indicator in the cells.)

In assay [1] the target is T1, Rat BRS-3/AMH (RB3-AMH) (Rattus norvegicus, UniProt Q8K418, D306A/P308H/V307M).
T1 construct: expressed in transfected cells; host or cells: 293EBNA cells, pE3 expression vector
T1 sequence (Q8K418 1-399 D306A/V307M/P308H): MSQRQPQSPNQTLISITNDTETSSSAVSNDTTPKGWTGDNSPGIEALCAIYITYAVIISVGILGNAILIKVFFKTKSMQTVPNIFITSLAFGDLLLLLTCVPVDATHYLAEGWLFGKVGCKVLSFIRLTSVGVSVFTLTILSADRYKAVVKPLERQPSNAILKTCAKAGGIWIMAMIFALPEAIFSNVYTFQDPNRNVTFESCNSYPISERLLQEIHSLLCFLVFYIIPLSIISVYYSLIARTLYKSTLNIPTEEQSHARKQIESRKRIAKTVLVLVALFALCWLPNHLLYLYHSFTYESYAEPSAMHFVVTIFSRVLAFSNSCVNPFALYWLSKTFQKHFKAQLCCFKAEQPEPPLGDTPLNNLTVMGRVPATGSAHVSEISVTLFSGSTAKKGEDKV
The text has this: (§1) Chimeric rat/human BRS-3 genes and substitution mutant rat BRS-3 genes were constructed by using PCR mutagenesis techniques (Fong, T. in Structure-function analysis of G protein coupled receptors, J, Wess, ed, Wiley-Liss, pp. 1-20, (1999)). All the mutant and wild type BRS-3 genes were cloned into pE3 expression vector which contains CMV early promoter, hygromycin-resistance gene and OriP segment from Epstein-Bar virus.
(§2) The functional activity of rat BRS-3 was also studied by measuring the agonist-induced calcium mobilization response using a Fluorescence Imaging Plate Reader (Molecular Devices, Sunnyvale, Calif.). Transfected 293EBNA cells were plated onto poly-D-lysine coated 96-well plates with black wall and clear bottom (Becton Dickinson, Franklin Lakes, N.J.). After 16-48 hr culture, the cells were loaded with 4 uM Fluo-3-AM fluorescent calcium-indicator dye (Molecular Probes, Eugene, OR) in assay buffer (Hank's balanced salts solution, 10 mM HEPES, pH7.4, 0.1% bovine serum albumin, 2.5 mM probenecid).
(§3) The changes in intracellular calcium concentration, as indicated by Fluo-3 fluorescence, were immediately measured by FLIPR. Maximal changes in fluorescence over base line were used to determine agonist response.
(§4) The EC50 values were mean±S.E. calculated from dose-response curves of 3-5 repeated experiments using FLIPR assays.
(§5) To determine which amino acids in the E3 loop of human BRS-3 conferred dYB activity upon rat BRS-3, several substitution BRS-3 mutants were made in which the amino acids in the E3 loop of rat BRS-3 were substituted with residues that match human BRS-3.

The target in assay [2] is T2, Rat BRS-3/IF (RB3-IF) (Rattus norvegicus, UniProt Q8K418, V310I/V311F).
T2 construct: expressed in transfected cells; host or cells: 293EBNA cells, pE3 expression vector
T2 sequence (Q8K418 1-399 V310I/V311F): T1 sequence (Q8K418 1-399 D306A/V307M/P308H) with A306D, M307V, H308P, V310I, V311F
Source text: as §1, §2, §3, §4, §5

Assay [3] addresses T3, Rat BRS-3/SQT (RB3-SQT) (Rattus norvegicus, UniProt Q8K418, E299Q/S300T/Y298S).
T3 construct: expressed in transfected cells; host or cells: 293EBNA cells, pE3 expression vector
T3 sequence (Q8K418 1-399 Y298S/E299Q/S300T): T1 sequence (Q8K418 1-399 D306A/V307M/P308H) with Y298S, E299Q, S300T, A306D, M307V, H308P
Source text: as §1, §2, §3, §4, §5

In assay [4] the target is T4, Rat BRS-3/VD (RB3-VD) (Rattus norvegicus, UniProt Q8K418, A302V/E303D).
T4 construct: expressed in transfected cells; host or cells: 293EBNA cells, pE3 expression vector
T4 sequence (Q8K418 1-399 A302V/E303D): T1 sequence (Q8K418 1-399 D306A/V307M/P308H) with A302V, E303D, A306D, M307V, H308P
Source text: as §1, §2, §3, §4, §5

Residue numbers refer to the chain shown, from its start. Non-standard residues stand in square brackets, D forms with d. Residues, ends and D or L forms follow the SMILES beside them. Nle = CCCC[C@H](N)C(=O)O; βAla = NCCC(=O)O

For orientation: EC50 means the concentration that produces a half-maximal response.

For the molecule `CCCC[C@H](NC(=O)[C@H](Cc1ccccc1)NC(=O)[C@H](Cc1c[nH]cn1)NC(=O)CCNC(=O)[C@@H](NC(=O)[C@H](C)NC(=O)[C@H](Cc1c[nH]c2ccccc12)NC(=O)[C@H](CCC(N)=O)NC(=O)[C@H](N)Cc1ccc(O)cc1)C(C)C)C(N)=O` [dYB, [D-Tyr6-betaAla11-Phe13-Nle14] bombesin (6-14)] (H-[dY]QWAV[βAla]HF[Nle]-NH2), the entries for the “improvement of dYB potency in calcium mobilization” value in assay [1] (RB3-AMH vs rat BRS-3) and in assay [3] (RB3-SQT vs rat BRS-3) were 6 fold and 5 fold, respectively. Further, the “effect of mutation on dYB receptor activity” value in assay [2] (RBB3-IF vs rat BRS-3) and in assay [4] (RBB3-VD vs rat BRS-3) was “little effect on the receptor activity” each time.

As for `CCCC[C@H](NC(=O)[C@H](Cc1ccccc1)NC(=O)[C@H](Cc1cnc[nH]1)NC(=O)CCNC(=O)[C@@H](NC(=O)[C@H](C)NC(=O)[C@H](Cc1c[nH]c2ccccc12)NC(=O)[C@H](CCC(N)=O)NC(=O)[C@H](N)Cc1ccc(O)cc1)C(C)C)C(N)=O` [dYB, [D-Tyr6-betaAla11-Phe13-Nle14] bombesin (6-14)] (H-[dY]QWAV[βAla]HF[Nle]-NH2), the EC50 in assay [1] amounted to 370 ± 70 nM; in assay [2], 1300 ± 230 nM; in assay [3], 390 ± 80 nM; in assay [4], 930 ± 150 nM.

The record behind these values is patent US20050222402A1, “Dna encoding rat bombesin receptor subtype-3 (brs-3) and uses thereof” (priority 2001, published 2005).
